The source of these data is PubChem BioAssay (NCI).

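Protocol summary: plate cells (96-well), add compound at 5 concentrations, incubate 48 h, interpolate endpoints linearly. GI50: concentration for 50% inhibition of growth. TGI: total growth inhibition.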

Test systems include OVCAR-5 ovarian; NCI-H522 lung; SNB-19 CNS; HOP-62 NSCLC; MDA-MB-231 breast; MOLT-4 leukemia; SK-OV-3 ovarian; HS 578T breast; OVCAR-4 ovarian; U251 CNS.
Holding throughout (experiment): NCI anticancer screen, dose series, 48 h

Turning to `Cn1ccnc1C(=O)/C=C/c1ccc(C(=O)Nc2ccc(S(F)(F)(F)(F)F)cc2)cc1`, the GI50 in the experiment with OVCAR-5 ovarian was 3.3 µM; in the experiment with NCI-H522 lung it was 4.69 µM; in the experiment with SNB-19 CNS it was 2.34 µM; in the experiment on HOP-62 NSCLC, 4.05 µM; with MDA-MB-231 breast, 2.33 µM; in the experiment on MOLT-4 leukemia it was 1.72 µM. The GI50 with SK-OV-3 ovarian is above 14.3 µM; in the experiment on HS 578T breast, 3.4 µM; in the experiment on OVCAR-4 ovarian, 0.704 µM; in the experiment on U251 CNS it was 0.506 µM. The TGI in the experiment with OVCAR-5 ovarian was above 14.3 µM; with NCI-H522 lung, above 14.3 µM; with SNB-19 CNS it was above 14.3 µM; with HOP-62 NSCLC, above 14.3 µM; with MDA-MB-231 breast, above 14.3 µM; in the experiment on MOLT-4 leukemia, 10.1 µM. Further, the TGI in the experiment with SK-OV-3 ovarian, in the experiment on HS 578T breast, in the experiment on OVCAR-4 ovarian and with U251 CNS was above 14.3 µM each time.

As for `N#C/C(=N\Nc1ccc(Cl)cc1)C(=O)Nc1cc(-c2ccccc2)nn1-c1ccccc1`, the GI50 in the experiment on OVCAR-5 ovarian was 3 µM; in the experiment on NCI-H522 lung, 2.38 µM; in the experiment with SNB-19 CNS, 3.17 µM; in the experiment on HOP-62 NSCLC, 3.31 µM; in the experiment with MDA-MB-231 breast, 2.86 µM; with MOLT-4 leukemia, 3.5 µM. The GI50 with SK-OV-3 ovarian is 2.28 µM; in the experiment with HS 578T breast, 3 µM; with OVCAR-4 ovarian, 2.25 µM; in the experiment on U251 CNS, 3.08 µM. The TGI in the experiment with OVCAR-5 ovarian, in the experiment with NCI-H522 lung, in the experiment on SNB-19 CNS, in the experiment on HOP-62 NSCLC, with MDA-MB-231 breast and with MOLT-4 leukemia was above 100 µM in each case. Also, the TGI in the experiment with SK-OV-3 ovarian is 6.66 µM; in the experiment on HS 578T breast, above 100 µM; with OVCAR-4 ovarian, 7.62 µM; with U251 CNS, above 100 µM.

`Fc1ccc(-c2nn3c(-c4ccc(F)c(Cl)c4)nnc3s2)cc1`: the GI50 in the experiment on OVCAR-5 ovarian was above 50 µM; with NCI-H522 lung, 20.8 µM; in the experiment on SNB-19 CNS it was 20.1 µM; in the experiment on HOP-62 NSCLC, 27.5 µM; with MDA-MB-231 breast, 30.5 µM; in the experiment on MOLT-4 leukemia, 26.3 µM. The GI50 was 19.4 µM in the experiment with SK-OV-3 ovarian, above 50 µM with HS 578T breast, 10.1 µM with OVCAR-4 ovarian and 18.5 µM in the experiment with U251 CNS. Besides, the TGI in the experiment on OVCAR-5 ovarian, in the experiment with NCI-H522 lung, in the experiment on SNB-19 CNS, with HOP-62 NSCLC, with MDA-MB-231 breast and in the experiment with MOLT-4 leukemia was above 50 µM each time. Further, the TGI with SK-OV-3 ovarian was above 50 µM; with HS 578T breast it was above 50 µM; in the experiment with OVCAR-4 ovarian, 41 µM; in the experiment with U251 CNS, above 50 µM.

Turning to `CCC1C(=O)OCc2c1cc1n(c2=O)Cc2cc3ccccc3nc2-1` (stereo not given), the TGI in the experiment with OVCAR-5 ovarian is above 100 µM; with NCI-H522 lung it was above 44.4 µM; with SNB-19 CNS it was above 100 µM; with HOP-62 NSCLC, 25.5 µM; in the experiment with MDA-MB-231 breast it was above 100 µM; in the experiment with MOLT-4 leukemia, above 22 µM. The TGI in the experiment on SK-OV-3 ovarian is above 100 µM; in the experiment with HS 578T breast, above 100 µM; in the experiment with OVCAR-4 ovarian it was above 100 µM; in the experiment on U251 CNS it was above 43 µM.

Regarding `CCCCCc1nc2c(c3c1CCCC3)CCCC2`, the GI50 in the experiment on OVCAR-5 ovarian was 9.08 µM; with NCI-H522 lung, 2.84 µM; in the experiment with SNB-19 CNS, 18.3 µM; in the experiment on HOP-62 NSCLC it was 13.1 µM; in the experiment on MDA-MB-231 breast, 11 µM; with MOLT-4 leukemia, 8.88 µM. Moreover, the GI50 in the experiment with SK-OV-3 ovarian was 11.6 µM; in the experiment on HS 578T breast, 14 µM; with OVCAR-4 ovarian, 5.61 µM; in the experiment with U251 CNS, 11.9 µM. The TGI in the experiment on OVCAR-5 ovarian was 27.4 µM; in the experiment with NCI-H522 lung, 17.9 µM; in the experiment with SNB-19 CNS, above 100 µM; with HOP-62 NSCLC, 29.1 µM; with MDA-MB-231 breast, 26.2 µM; in the experiment with MOLT-4 leukemia, 62.6 µM. For the same compound, the TGI came to 30 µM in the experiment on SK-OV-3 ovarian, 69.3 µM in the experiment on HS 578T breast, 95.3 µM in the experiment with OVCAR-4 ovarian and 29.1 µM with U251 CNS.

With `CC(=O)CCc1ccc(OC2OC(COC(=O)c3cc(O)c(O)c(O)c3)C(O)C(O)C2OC(=O)/C=C/c2ccccc2)cc1` (stereo not given), the GI50 was 15.6 µM in the experiment with OVCAR-5 ovarian; 18.1 µM with NCI-H522 lung; 18.4 µM in the experiment on SNB-19 CNS; 17.2 µM in the experiment on HOP-62 NSCLC; 19.6 µM in the experiment with MDA-MB-231 breast; 17.2 µM in the experiment on MOLT-4 leukemia. Also, the GI50 was 29.8 µM with SK-OV-3 ovarian, 33.8 µM in the experiment on HS 578T breast, 23.8 µM in the experiment with OVCAR-4 ovarian and 11.9 µM in the experiment with U251 CNS. Also, the TGI in the experiment with OVCAR-5 ovarian came to 32.1 µM; with NCI-H522 lung it was 48 µM; in the experiment with SNB-19 CNS, 49.7 µM; with HOP-62 NSCLC, 33.8 µM; with MDA-MB-231 breast, 44.5 µM; in the experiment with MOLT-4 leukemia it was 48.7 µM. Besides, the TGI in the experiment on SK-OV-3 ovarian is 68.5 µM; in the experiment on HS 578T breast it was above 100 µM; in the experiment on OVCAR-4 ovarian, 89.7 µM; in the experiment with U251 CNS it was 30.1 µM.

As to `Cc1cc(Cl)cc2c(N=Nc3ccccc3[N+](=O)[O-])c(O)[nH]c12`, the TGI in the experiment on OVCAR-5 ovarian, in the experiment with NCI-H522 lung, in the experiment on SNB-19 CNS, in the experiment with HOP-62 NSCLC, in the experiment on MDA-MB-231 breast and in the experiment with MOLT-4 leukemia was above 100 µM each time. In addition, the TGI in the experiment with SK-OV-3 ovarian, in the experiment with HS 578T breast, in the experiment on OVCAR-4 ovarian and in the experiment with U251 CNS was above 100 µM in each case.

Take `CN(Cc1ccc(Cl)cc1)c1ccc(CO)c(Cl)c1`: the GI50 in the experiment with OVCAR-5 ovarian is 0.644 µM; in the experiment on NCI-H522 lung it was 13.4 µM; in the experiment on SNB-19 CNS it was 16.8 µM; in the experiment with HOP-62 NSCLC, 5.75 µM; in the experiment with MDA-MB-231 breast it was 11 µM; in the experiment with MOLT-4 leukemia, 18 µM. In addition, the GI50 with SK-OV-3 ovarian was 5.18 µM; with HS 578T breast, 12.5 µM; in the experiment with OVCAR-4 ovarian it was 2.27 µM; in the experiment on U251 CNS, 3.01 µM. For the same compound, the TGI in the experiment on OVCAR-5 ovarian was found to be 4.67 µM; in the experiment with NCI-H522 lung, 31.2 µM; in the experiment with SNB-19 CNS, 51.6 µM; in the experiment with HOP-62 NSCLC, 18.3 µM; in the experiment with MDA-MB-231 breast, 29.9 µM; in the experiment on MOLT-4 leukemia, 66.2 µM. Also, the TGI with SK-OV-3 ovarian is 16.9 µM; in the experiment on HS 578T breast it was 39.8 µM; in the experiment with OVCAR-4 ovarian, 14 µM; in the experiment on U251 CNS it was 15.9 µM.

Turning to `Cc1cc2cc3cc(C)c(N(C)C)cc3[n+](C)c2cc1N(C)C`, the GI50 in the experiment with OVCAR-5 ovarian is 11.9 µM; in the experiment with NCI-H522 lung, 5.35 µM; in the experiment on SNB-19 CNS, 4.22 µM; in the experiment on HOP-62 NSCLC it was 6.03 µM; with MDA-MB-231 breast, 3.17 µM; in the experiment on MOLT-4 leukemia, 3.58 µM. Also, the GI50 in the experiment on SK-OV-3 ovarian is 5.05 µM; in the experiment with HS 578T breast, 2.35 µM; with OVCAR-4 ovarian, 2.83 µM; in the experiment with U251 CNS, 2.05 µM. For the same compound, the TGI was above 100 µM in the experiment on OVCAR-5 ovarian; 36.1 µM with NCI-H522 lung; above 100 µM with SNB-19 CNS; 24.3 µM with HOP-62 NSCLC; 9 µM in the experiment with MDA-MB-231 breast; above 100 µM in the experiment on MOLT-4 leukemia. Also, the TGI with SK-OV-3 ovarian is above 100 µM; in the experiment with HS 578T breast it was 14.9 µM; in the experiment with OVCAR-4 ovarian, 34.2 µM; in the experiment with U251 CNS, 21.2 µM.

Turning to `O=C1CC(c2cccc(O)c2)C2(C(=O)NC(=S)NC2=O)C(c2cccc(O)c2)C1` (stereo not given), the GI50 in the experiment on OVCAR-5 ovarian, in the experiment with NCI-H522 lung, in the experiment on SNB-19 CNS, in the experiment on HOP-62 NSCLC, in the experiment with MDA-MB-231 breast and with MOLT-4 leukemia was above 100 µM throughout. Besides, the GI50 with SK-OV-3 ovarian, in the experiment on HS 578T breast, in the experiment on OVCAR-4 ovarian and with U251 CNS was above 100 µM in each case. The TGI in the experiment with OVCAR-5 ovarian, in the experiment with NCI-H522 lung, with SNB-19 CNS, in the experiment on HOP-62 NSCLC, in the experiment with MDA-MB-231 breast and with MOLT-4 leukemia was above 100 µM in each case. In addition, the TGI in the experiment on SK-OV-3 ovarian, in the experiment with HS 578T breast, with OVCAR-4 ovarian and in the experiment with U251 CNS was above 100 µM throughout.

With `COc1ccc2c(c1O)C13CCN(C)C(C2)C1CCC1(C3)OCCO1` (stereo not given), the TGI in the experiment with OVCAR-5 ovarian, in the experiment with NCI-H522 lung, with SNB-19 CNS, in the experiment with HOP-62 NSCLC, in the experiment on MDA-MB-231 breast and in the experiment on MOLT-4 leukemia was above 100 µM in each case. Also, the TGI with SK-OV-3 ovarian, with HS 578T breast, in the experiment on OVCAR-4 ovarian and with U251 CNS was above 100 µM in each case.

In the case of `CC(C)[C@H]1CC[C@H]2[C@@H](CC[C@H]3[C@](C)(CN)CCC[C@]23C)C1`, the GI50 in the experiment with OVCAR-5 ovarian is 1.73 µM; with NCI-H522 lung it was 1.91 µM; in the experiment on SNB-19 CNS it was 3.19 µM; in the experiment on HOP-62 NSCLC, 1.89 µM; with MDA-MB-231 breast it was 2.05 µM; in the experiment with MOLT-4 leukemia it was 2.21 µM. Moreover, the GI50 in the experiment with SK-OV-3 ovarian was 4.25 µM; in the experiment on HS 578T breast, 2.45 µM; in the experiment on OVCAR-4 ovarian, 4.36 µM; in the experiment on U251 CNS, 1.67 µM. The TGI was 3.44 µM in the experiment with OVCAR-5 ovarian; 3.82 µM in the experiment with NCI-H522 lung; 12.9 µM in the experiment with SNB-19 CNS; 3.48 µM with HOP-62 NSCLC; 4.51 µM with MDA-MB-231 breast; 5.2 µM with MOLT-4 leukemia. In addition, the TGI stood at 16.3 µM in the experiment with SK-OV-3 ovarian, 6.67 µM in the experiment on HS 578T breast, 20.3 µM in the experiment on OVCAR-4 ovarian and 3.08 µM in the experiment on U251 CNS.
